These results are taken from PubChem BioAssay (NCI).

The structures appear in SMILES notation.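 Assay format: 96-well plates, 48-hour exposure. GI50 is the concentration that inhibits growth by half. TGI: total growth inhibition.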 A value given as a limit tells only on which side of the number the result lay.

Test systems include SF-295 CNS; LOX IMVI melanoma; HOP-92 NSCLC; SK-MEL-2 melanoma; TK-10 renal; SF-268 CNS; MOLT-4 leukemia; MALME-3M melanoma; OVCAR-4 ovarian.
Common to all, as to test: NCI anticancer screen, dose series, 48 h

In the case of `O=C(/C=C/c1cc(O)ccc1O)c1ccc(Cl)cc1`, the GI50 in the assay on SF-295 CNS was 35.3 µM; in the assay with LOX IMVI melanoma, 18.4 µM; in the assay with HOP-92 NSCLC, above 100 µM; in the assay on SK-MEL-2 melanoma, 60.7 µM; in the assay on TK-10 renal, 31.6 µM; in the assay with SF-268 CNS it was 20.7 µM. Besides, the GI50 in the assay on MOLT-4 leukemia is above 100 µM. The TGI in the assay on SF-295 CNS is above 100 µM; in the assay with LOX IMVI melanoma, 48.4 µM; with HOP-92 NSCLC, above 100 µM; in the assay with SK-MEL-2 melanoma it was above 100 µM; in the assay with TK-10 renal, above 100 µM; in the assay on SF-268 CNS it was above 100 µM. In the assay with MOLT-4 leukemia, this compound displayed a TGI above 100 µM.
Consider `CN(C)C(=S)/N=C(\N)N(C)C`, for which the TGI with SF-295 CNS, in the assay with MALME-3M melanoma, in the assay on LOX IMVI melanoma, in the assay with HOP-92 NSCLC, with SK-MEL-2 melanoma and in the assay on TK-10 renal was above 100 µM in each case. Also, the TGI with SF-268 CNS, with OVCAR-4 ovarian and with MOLT-4 leukemia was above 100 µM throughout.
Regarding `CCOC(=O)C1=C(Nc2cccc3ccccc23)OCC1=O`, the TGI with MALME-3M melanoma, in the assay with HOP-92 NSCLC, in the assay on SK-MEL-2 melanoma, in the assay on SF-268 CNS, in the assay on OVCAR-4 ovarian and in the assay with MOLT-4 leukemia was above 100 µM each time.
With `O=C(/C=C/c1ccco1)N1CCN(Cc2ccccc2)CC1`, the TGI in the assay with SF-295 CNS, in the assay with LOX IMVI melanoma, with HOP-92 NSCLC, in the assay on TK-10 renal, in the assay on SF-268 CNS and with OVCAR-4 ovarian was above 100 µM throughout. In the assay with MOLT-4 leukemia, this compound came in with a TGI above 100 µM.
`NC(=S)N/N=C1/C(=O)N(c2ccccc2)C(=O)C1C(=O)Nc1ccccc1` (stereo not given): the TGI in the assay on SF-295 CNS, with MALME-3M melanoma, with HOP-92 NSCLC, with SK-MEL-2 melanoma, with TK-10 renal and in the assay on SF-268 CNS was above 100 µM each time. The TGI in the assay on OVCAR-4 ovarian and in the assay on MOLT-4 leukemia was above 100 µM each time.
As for `CC(=O)Nc1ccc(S(=O)(=O)N/N=C(\C)CN2C(=O)c3ccccc3C2=O)cc1`, the TGI in the assay with SF-295 CNS, with MALME-3M melanoma, in the assay on SK-MEL-2 melanoma, with TK-10 renal, in the assay on OVCAR-4 ovarian and in the assay on MOLT-4 leukemia was above 100 µM in each case.
On to `NC(CCSCCF)C(=O)O` (stereo not given), for which the TGI in the assay with LOX IMVI melanoma, in the assay with HOP-92 NSCLC, in the assay with SK-MEL-2 melanoma, with TK-10 renal, in the assay with SF-268 CNS and with OVCAR-4 ovarian was above 100 µM each time. In the assay on MOLT-4 leukemia, this compound came in with a TGI above 100 µM.
As to `CC(C)=CC1(C)/C(=N\O)C(C)(CC(C)C)C(=O)N1O` (stereo not given), the TGI with SF-295 CNS, in the assay with MALME-3M melanoma, in the assay with LOX IMVI melanoma, with HOP-92 NSCLC, in the assay with SK-MEL-2 melanoma and with TK-10 renal was above 100 µM each time. Further, the TGI with OVCAR-4 ovarian and in the assay with MOLT-4 leukemia was above 100 µM each time.
In the case of `CC(C)(C)c1cc(C#N)c2c(c1)C(=O)OC2(c1ccccc1)c1ccccc1C#N` (stereo not given), the TGI in the assay on SF-295 CNS, in the assay on MALME-3M melanoma, in the assay with LOX IMVI melanoma, with SK-MEL-2 melanoma, with TK-10 renal and in the assay with SF-268 CNS was above 100 µM throughout. The TGI in the assay on OVCAR-4 ovarian and in the assay on MOLT-4 leukemia was above 100 µM throughout.
As to `OCC(O)C(OC1OC(CO)C(O)C(O)C1O)c1nn(-c2ccc(Cl)cc2)c2nc3cc(Cl)c(Cl)cc3nc12` (stereo not given), the TGI in the assay with SF-295 CNS, in the assay with MALME-3M melanoma, in the assay on LOX IMVI melanoma, in the assay on TK-10 renal, with SF-268 CNS and with OVCAR-4 ovarian was above 100 µM in each case. In the assay with MOLT-4 leukemia, this compound yielded a TGI above 100 µM.
As for `C=CCC(O)c1cc(OC)ccc1OC` (stereo not given), the TGI with SF-295 CNS, in the assay on MALME-3M melanoma, with LOX IMVI melanoma, in the assay on HOP-92 NSCLC, in the assay with SK-MEL-2 melanoma and in the assay with TK-10 renal was above 100 µM each time. Besides, the TGI in the assay on SF-268 CNS and with OVCAR-4 ovarian was above 100 µM each time.
On to `CCOc1ccc2c(c1)[n+]([O-])c(-c1ccc([N+](=O)[O-])cc1)c(N)[n+]2[O-]`, for which the TGI with SF-295 CNS, with MALME-3M melanoma, with HOP-92 NSCLC, in the assay with SK-MEL-2 melanoma, with SF-268 CNS and with OVCAR-4 ovarian was above 100 µM throughout. In the assay on MOLT-4 leukemia, this compound came in with a TGI above 100 µM.
On to `Cc1c(-c2cc(-c3ccccc3)n[nH]c2=O)c2ccccc2n1C`, for which the TGI in the assay on SF-295 CNS, in the assay on MALME-3M melanoma, in the assay on HOP-92 NSCLC, in the assay on SK-MEL-2 melanoma, in the assay on TK-10 renal and in the assay with SF-268 CNS was above 100 µM in each case. In addition, the TGI with OVCAR-4 ovarian and with MOLT-4 leukemia was above 100 µM in each case.
Turning to `Nc1ncnc2c1N=CN(Oc1ccccc1)N2`, the TGI was above 100 µM with SF-295 CNS; 32.2 µM with MALME-3M melanoma; above 100 µM in the assay on HOP-92 NSCLC; above 100 µM in the assay with SK-MEL-2 melanoma; above 100 µM in the assay with TK-10 renal; above 100 µM in the assay on OVCAR-4 ovarian. Besides, the TGI in the assay with MOLT-4 leukemia was above 100 µM.
For the compound `CNC(=O)NCCCCC(NC(=O)OCc1ccccc1)C(=O)OCc1ccccc1` (stereo not given), the TGI in the assay with SF-295 CNS worked out at 50.3 µM; in the assay on MALME-3M melanoma, 47 µM; in the assay with LOX IMVI melanoma it was 31.3 µM; with HOP-92 NSCLC, 89.2 µM; in the assay on SK-MEL-2 melanoma it was 61.1 µM; with TK-10 renal it was 52.6 µM. Moreover, the TGI in the assay with OVCAR-4 ovarian was 46.5 µM; with MOLT-4 leukemia it was 40.9 µM.
For the compound `CC1=C(C(=O)NCc2ccccc2)C(c2ccc(N(C)C)cc2)C(C(=O)NCc2ccccc2)=C(C)N1`, the TGI with SF-295 CNS, in the assay on MALME-3M melanoma, in the assay on HOP-92 NSCLC, with SK-MEL-2 melanoma, in the assay with TK-10 renal and in the assay on OVCAR-4 ovarian was above 100 µM each time. Also, the TGI with MOLT-4 leukemia is above 100 µM.
